Holding throughout (experiment): coupled phosphoglucoisomerase / glucose-6-phosphate dehydrogenase assay, NADP+ reduction at […] nm
Holding throughout (assay type): biochemical, Trachemys scripta elegans

The target in assay [1] is T1, FBPase (anoxic liver).
T1 construct: gene FBP1; native, purified from liver of 20 h anoxic turtles
As to conditions: inhibitor, allosteric; pH 7.2 imidazole, 5 mM MgSO4, 0.2 mM NADP+, 22 °C; FBP 0.1 mM as optimal assay; enzyme from anoxic liver.

In assay [2] the target is T2, FBPase (control liver).
T2 construct: gene FBP1; native, purified from liver of normoxic control turtles (phosphocellulose, CM cellulose); ~37 kDa on SDS-PAGE; band sent for mass spectrometry; tetramer in homology model
The note with it: inhibitor, allosteric, pH 7.2 imidazole, 5 mM MgSO4, 0.2 mM NADP+, 22 °C, FBP 0.1 mM as optimal assay.

In assay [3] the target is T1, FBPase (anoxic liver). The note with it: activation constant, activator, pH 7.2 imidazole, 5 mM MgSO4, 22 °C, enzyme from anoxic liver.
Assay [4] has as its target T2, FBPase (control liver). The note with it: activation constant, activator, pH 7.2 imidazole, 5 mM MgSO4, 22 °C.
The test system of assay [5] is T1, FBPase (anoxic liver). The note with it: pH 7.2 imidazole, 5 mM MgSO4, 0.2 mM NADP+, 22 °C; paper states subsaturating FBP (0.24 µM); enzyme from anoxic liver.
In assay [6] the test system is T2, FBPase (control liver). The note with it: pH 7.2 imidazole, 5 mM MgSO4, 0.2 mM NADP+, 22 °C; paper states subsaturating FBP (0.24 µM).

By IC50 is commonly meant the concentration needed to halve the response being measured. Read a high IC50 as weaker potency. On to `Nc1ncnc2c1ncn2[C@@H]1O[C@H](COP(=O)(O)OP(=O)(O)O)[C@@H](O)[C@H]1O` [ADP], for which the 50% inhibitory concentration (IC50) against FBPase (anoxic liver) [1] came out at 8.3 ± 0.6 µM; against FBPase (control liver) [2] (text b33 prints mM for this value, table µM) it was 0.0118 ± 0.0003 mM.

On to `Nc1ncnc2c1ncn2[C@@H]1O[C@H](COP(=O)(O)O)[C@@H](O)[C@H]1O` [AMP], for which the 50% inhibitory concentration (IC50) amounted to 3.6 ± 0.3 µM on FBPase (anoxic liver) [1] and 0.0061 ± 0.0001 mM at FBPase (control liver) [2].

In general, EC50 refers to the concentration needed to bring the measured effect to its halfway point. Low values mean an effect from little substance, high ones a need for much substance. Turning to `Nc1ncnc2c1ncn2[C@@H]1O[C@H](COP(=O)(O)OP(=O)(O)OP(=O)(O)O)[C@@H](O)[C@H]1O` [ATP.Mg], the values for the EC50 on FBPase (anoxic liver) [3] (ATP.Mg 1:1) and at FBPase (control liver) [4] (ATP.Mg 1:1) were 25 ± 0.9 µM and 144 ± 7 µM, respectively.

Take `C[C@H](N)C(=O)O` [Alanine]: the values for the 50% effective concentration (EC50) at FBPase (anoxic liver) [3] and on FBPase (control liver) [4] were 3.3 ± 0.1 µM and 2.85 ± 0.24 µM, respectively.

The Km is the concentration of substrate that gives half-maximal velocity. For the molecule `O=P(O)(O)OC[C@H]1OC(O)(COP(=O)(O)O)[C@@H](O)[C@@H]1O` (stereo partly drawn) [FBP], the Michaelis-Menten constant (Km) came to 59.8 ± 5.2 µM in the assay on FBPase (anoxic liver) [5] and 26.9 ± 3 µM in the assay with FBPase (control liver) [6].

As to `C=C(OP(=O)(O)O)C(=O)O` [PEP], the EC50 on FBPase (anoxic liver) [3] came to 3.3 ± 0.2 µM; on FBPase (control liver) [4], 0.33 ± 0.09 µM.

These data come from article PMC8534150, “New Insights to Regulation of Fructose-1,6-bisphosphatase during Anoxia in Red-Eared Slider, Trachemys scripta elegans” (Biomolecules, 2021).
